Experiment: Circular dichroism (CD) spectroscopy of peptide assemblies
Type: physicochemical
Conditions: 100 µM, aqueous, 0.5 mm path
Protocol: CD spectra of the peptide assemblies in aqueous solutions were recorded under the nitrogen atmosphere using a spectrophotometer JASCO J-820 (Jasco, Japan). A quartz cuvette with 0.5 mm path length was used as a sample container. Continuous scanning mode is applied. And each sample is scanned three times to obtain an averaged spectrum.

Substance	secondary structure of self-assembly
FFIKLLI [candidate assembling ligand, FF coupled to N-terminus of IKLLI]	β-sheet structure
FIKLLI [candidate assembling ligand, F coupled to N-terminus of IKLLI]	random coil structure
